Measurements from ChEMBL document CHEMBL1201862, “PubChem BioAssay data set” (2004).
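Method: 48-hour compound exposure of cells in 96-well plates, five concentrations, linear interpolation of endpoints. GI50 = concentration required for 50% inhibition of growth.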 Activity calls are given as the source filed them. No stated cut-off is given here; in the data, active = GI50 up to about 1.1 µM and inactive = higher.

Key:
Assay in all cases: growth of human tumour cells (NCI), 48 h
HOP-62 = system: HOP-62
KM12 = system: KM12
COLO 205 = system: COLO 205
SK-OV-3 = system: SK-OV-3
SF-268 = system: SF-268
RPMI-8226 = system: RPMI-8226
HCT-15 = system: HCT-15
EKVX = system: EKVX
RXF 393 = system: RXF 393
NCI-H23 = system: NCI-H23
SK-MEL-5 = system: SK-MEL-5
U-251 = system: U-251
DU-145 = system: DU-145
SR = system: SR
HCT-116 = system: HCT-116
SF-295 = system: SF-295
MOLT-4 = system: MOLT-4
NCI-H460 = system: NCI-H460
SNB-19 = system: SNB-19
HCC 2998 = system: HCC 2998

| Structure (SMILES) | GI50 (HOP-62) | GI50 (KM12) | GI50 (COLO 205) | GI50 (SK-OV-3) | GI50 (SF-268) | GI50 (RPMI-8226) | GI50 (HCT-15) [µM] | GI50 (EKVX) | GI50 (RXF 393) | GI50 (NCI-H23) | GI50 (SK-MEL-5) | GI50 (U-251) | GI50 (DU-145) | GI50 (SR) | GI50 (HCT-116) | GI50 (SF-295) | GI50 (MOLT-4) | GI50 (NCI-H460) | GI50 (SNB-19) | GI50 (HCC 2998) |
| --- | --- | --- | --- | --- | --- | --- | --- | --- | --- | --- | --- | --- | --- | --- | --- | --- | --- | --- | --- | --- |
| CC(=O)Oc1ccc(-c2nnc(-c3ccc(OC(C)=O)cc3)nn2)cc1 | > 100 µM (inactive) | > 100 µM (inactive) | > 100 µM (inactive) | > 100 µM (inactive) | > 100 µM (inactive) | > 100 µM (inactive) | 51.4 | 70.5 µM (inactive) | > 100 µM (inactive) | > 100 µM (inactive) | > 100 µM (inactive) | > 100 µM (inactive) | > 100 µM (inactive) | 20.4 µM (inactive) | > 100 µM (inactive) | > 100 µM (inactive) | > 100 µM (inactive) | > 100 µM (inactive) | > 100 µM (inactive) | – |
| NC(Cc1ccccc1)C(=O)N[C@H]1c2ccsc2/C(=N/O)[C@H]1O (some centres not stated) | > 100 µM (inactive) | – | > 100 µM (inactive) | > 100 µM (inactive) | – | – | > 100 | > 100 µM (inactive) | > 100 µM (inactive) | > 100 µM (inactive) | > 100 µM (inactive) | > 100 µM (inactive) | > 100 µM (inactive) | > 100 µM (inactive) | > 100 µM (inactive) | > 100 µM (inactive) | > 10 µM (inactive) | > 100 µM (inactive) | – | > 100 µM (inactive) |
| COC(=O)C(/C(=N\O)C(=O)Nc1cccc(Cl)c1C)c1cnc2ccccc2n1 (configuration not stated) | > 100 µM (inactive) | > 100 µM (inactive) | > 100 µM (inactive) | > 100 µM (inactive) | > 100 µM (inactive) | – | > 100 | > 100 µM (inactive) | 92.9 µM (inactive) | > 100 µM (inactive) | > 100 µM (inactive) | > 100 µM (inactive) | > 100 µM (inactive) | > 100 µM (inactive) | > 100 µM (inactive) | > 100 µM (inactive) | > 100 µM (inactive) | > 100 µM (inactive) | > 100 µM (inactive) | > 100 µM (inactive) |
| O=P(Oc1ccc(Cl)cc1)(Oc1ccc(Cl)cc1)N1CC1 | > 10 µM (inactive) | > 10 µM (inactive) | > 10 µM (inactive) | > 10 µM (inactive) | > 10 µM (inactive) | > 10 µM (inactive) | > 10 | > 10 µM (inactive) | – | > 10 µM (inactive) | > 10 µM (inactive) | > 10 µM (inactive) | > 10 µM (inactive) | > 10 µM (inactive) | – | > 10 µM (inactive) | > 10 µM (inactive) | > 10 µM (inactive) | > 10 µM (inactive) | > 10 µM (inactive) |
| COC(CNC(=O)C(C)NC(=O)C(C)NC(=O)c1ccccc1)OC (configuration not stated) | – | > 100 µM (inactive) | > 100 µM (inactive) | > 100 µM (inactive) | > 100 µM (inactive) | > 100 µM (inactive) | > 100 | > 100 µM (inactive) | > 100 µM (inactive) | > 100 µM (inactive) | > 100 µM (inactive) | > 100 µM (inactive) | > 100 µM (inactive) | > 100 µM (inactive) | > 100 µM (inactive) | > 100 µM (inactive) | > 100 µM (inactive) | > 100 µM (inactive) | – | – |
| CC1(C)CCCC(C)(C2CCC3(C)C2C(O)CC2C4(C)CCC(O)C(C)(C)C4CCC23C)O1 (configuration not stated) | – | > 100 µM (inactive) | 80.2 µM (inactive) | 46.2 µM (inactive) | 51.1 µM (inactive) | – | > 100 | > 100 µM (inactive) | 3.72 µM (inactive) | > 100 µM (inactive) | 47.8 µM (inactive) | > 100 µM (inactive) | > 100 µM (inactive) | > 100 µM (inactive) | > 100 µM (inactive) | 52.1 µM (inactive) | 93.1 µM (inactive) | 56.6 µM (inactive) | 42.6 µM (inactive) | > 100 µM (inactive) |
| O=c1[nH]c(=O)n(C2OC(CO)C(O)C2O)cc1OCCCc1ccccc1 (configuration not stated) | > 100 µM (inactive) | > 100 µM (inactive) | > 100 µM (inactive) | > 100 µM (inactive) | > 100 µM (inactive) | – | > 100 | > 100 µM (inactive) | > 100 µM (inactive) | > 100 µM (inactive) | > 100 µM (inactive) | – | > 100 µM (inactive) | > 100 µM (inactive) | > 100 µM (inactive) | > 100 µM (inactive) | > 100 µM (inactive) | > 100 µM (inactive) | > 100 µM (inactive) | > 100 µM (inactive) |
| Cc1ccc(S(=O)(=O)NCCCSCCSCCCN)cc1 | – | > 100 µM (inactive) | > 100 µM (inactive) | > 100 µM (inactive) | > 100 µM (inactive) | – | > 100 | – | > 100 µM (inactive) | > 100 µM (inactive) | > 100 µM (inactive) | > 100 µM (inactive) | > 100 µM (inactive) | > 100 µM (inactive) | > 100 µM (inactive) | > 100 µM (inactive) | > 100 µM (inactive) | > 100 µM (inactive) | > 100 µM (inactive) | > 100 µM (inactive) |
